Source: US20180147153A1, “PROCESS FOR MAKING A COATED DOSAGE FORM” (Johnson & Johnson Consumer Inc., priority 2016, published 2018)

Experiments:
Type in all cases: physicochemical
[1] = Dielectric properties (e′, e″, loss tangent, Q value) by Slotted Line Method
From the text: The property of permittivity is the measure of the resistance to forming an electric field. For purposes of comparing materials in air, it is often convenient to describe the permittivity of material in air where the permittivity is more specifically called “relative permittivity” or €r. This is a complex number represented by the following equation: […]
where e′ (the real portion of the complex number) is the dielectric constant (energy storage) and e″ (the imaginary portion of the complex number) is the dielectric loss or dissipation factor (energy dissipated as heat). The ratio of dielectric loss (e″) over the dielectric constant (e′) is called the loss tangent (tan δ) or power factor.
For purposes of this invention, the Q value is calculated for the frequency that the material is to be processed (e.g., 27 MHz). The Q value is affected by physical and chemical properties such as density (porosity/particle size), moisture (conductivity), temperature, and molecular polarizability. The measurements obtained by this method can eliminate the need to measure and evaluate these properties independently.
This process is referred to as the “Slotted Line Method.” Unless otherwise stated, the Slotted line method was used for the calculation of e′, e″, and Q value herein with the frequency range set to 26-28 MHz (31 points resolution) and values of e′ and e″ were recorded from the 27 MHz data point.

[2] = Loss on drying (moisture); conditions: Table 1b
Description: In one embodiment, the lossy coated particle contains water. In this embodiment, the lossy coated particle comprises at least 0.1 percent, by weight, water, such as at least 0.3 percent, by weight, water, such as at least 0.5 percent, by weight, water when measured using loss on drying at 105° C. until the weight of the lossy coated particles has stabilized. In one embodiment, the lossy coated particle retains water when measured by loss on drying prior to sintering, such as moisture content of at least 0.1 percent by weight, such as from about 0.1 to about 3 percent, such as from about 0.5 to about 2 percent, by weight.

[3] = Water activity; conditions: Table 1b
[4] = Table 1b, surface stabilizing agents, 27 MHz

e′ ([1]; Table 1a, dielectric constant, 27 MHz data point, Slotted Line Method)	e″ ([1]; Table 1a, dielectric loss, 27 MHz data point, Slotted Line Method)	Loss Tangent ([1]; Table 1a, e″/e′, 27 MHz)	e′ [1, 4]	e″ [1, 4]	Loss on Drying @ 105° C. [2]	Water Activity [3]	Compound
1.6214	0.0035	0.0022	–	–	–	–	OC[C@@H](O)[C@@H](O[C@H]1O[C@H](CO)[C@@H](O)[C@H](O)[C@H]1O)[C@H](O)[C@@H](O)CO [Maltitol (SweetPearl DC300), Maltitol]
–	–	–	1.5185	0.0007	0.137	0.1935	OC[C@H]1O[C@H](O[C@H]2O[C@H](CO)[C@@H](O)[C@H](O)[C@H]2O)[C@H](O)[C@@H](O)[C@@H]1O [Trehalose]
–	–	–	1.751	0.010	0.035	0.453	OC[C@@H](O)[C@H](O)[C@@H](O)CO [Xylitol (Xylitab ® 100), Xylitol]
